Read-outs that look alike come from different tables or passages of the source.
Key:
His-GST-PARP7 = His-GST-PARP7 (Homo sapiens (Human), UniProt Q7Z3E1); test: PARP7 biochemical assay; conditions: read-out: PARP7 IC50
[1] = system: NCI-H1373 (human lung adenocarcinoma) cells; test: Cell proliferation assay (CellTiter-Glo), NCI-H1373; assay type: cell-based; conditions: 6 days, CellTiter-Glo, read-out: NCI-H1373 GI50
[2] = system: HARA (human lung squamous cell carcinoma) cells; test: Cell proliferation assay (CellTiter-Glo), HARA; assay type: cell-based; conditions: 6 days, CellTiter-Glo, read-out: HARA GI50

Sequence of His-GST-PARP7 (Q7Z3E1 whole entry): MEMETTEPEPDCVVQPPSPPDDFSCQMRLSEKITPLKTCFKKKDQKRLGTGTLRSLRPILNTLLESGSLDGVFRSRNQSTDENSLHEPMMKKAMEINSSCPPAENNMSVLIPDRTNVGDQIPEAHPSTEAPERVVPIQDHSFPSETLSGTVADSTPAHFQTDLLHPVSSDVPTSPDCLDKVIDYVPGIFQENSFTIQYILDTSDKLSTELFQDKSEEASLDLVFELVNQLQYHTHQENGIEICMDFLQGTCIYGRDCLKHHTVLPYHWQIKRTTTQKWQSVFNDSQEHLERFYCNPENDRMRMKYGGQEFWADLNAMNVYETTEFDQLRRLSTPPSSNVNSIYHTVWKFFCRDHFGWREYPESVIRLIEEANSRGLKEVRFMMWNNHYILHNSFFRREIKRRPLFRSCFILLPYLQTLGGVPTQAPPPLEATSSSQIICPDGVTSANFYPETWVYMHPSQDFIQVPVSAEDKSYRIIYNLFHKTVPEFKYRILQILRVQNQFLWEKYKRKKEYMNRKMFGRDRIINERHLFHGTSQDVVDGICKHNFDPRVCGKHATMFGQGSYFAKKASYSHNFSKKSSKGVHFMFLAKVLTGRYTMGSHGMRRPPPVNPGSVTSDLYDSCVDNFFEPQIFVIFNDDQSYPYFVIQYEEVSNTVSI

Compound	IC50 (His-GST-PARP7)	GI50 [1]	GI50 [2]	GI50 ([1]; Homo sapiens, NCI-H1373, 144 h)	GI50 ([2]; Homo sapiens, 144 h)
6-(4-(5-((7-Cyclobutoxy-4-oxo-3,4-dihydrophthalazin-1-yl)methyl)-2-fluorobenzoyl)-6,6-difluoro-1,4-diazepan-1-yl)nicotinonitrile [Example 125]	< 0.05 µM	0.1 to 1 µM	> 5 µM	–	–
CC#Cc1ccc2c(=O)[nH]nc(Cc3ccc(F)c(C(=O)N4CCN(c5cc(C(=O)NC)ccn5)CC4)c3)c2c1 [Example 56, 2-(4-(2-Fluoro-5-((4-oxo-7-(prop-1-ynyl)-3,4-dihydrophthalazin-1-yl)methyl)benzoyl)piperazin-1-yl)-N-methylisonicotinamide]	< 0.05 µM	–	–	0.1 to 1 µM	> 5 µM
CC#Cc1ccc2c(=O)[nH]nc(Cc3ccc(F)c(C(=O)N4CCN(c5ccc(C#N)cn5)C(=O)C4(C)C)c3)c2c1 [Example 71, 6-(4-(2-Fluoro-5-((4-oxo-7-(prop-1-yn-1-yl)-3,4-dihydrophthalazin-1-yl)methyl)benzoyl)-3,3-dimethyl-2-oxopiperazin-1-yl)nicotinonitrile]	< 0.05 µM	–	–	1 to 5 µM	–
CC#Cc1ccc2c(=O)[nH]nc(Cc3ccc(F)c(C(=O)N4CCN(c5ccc(C#N)cn5)CC(F)(F)C4)c3)c2c1 [Example 80, 6-(6,6-Difluoro-4-(2-fluoro-5-((4-oxo-7-(prop-1-ynyl)-3,4-dihydrophthalazin-1-yl)methyl)benzoyl)-1,4-diazepan-1-yl)nicotinonitrile]	< 0.05 µM	–	–	0.1 to 1 µM	1 to 5 µM
CC#Cc1cc2c(Cc3ccc(F)c(C(=O)N4CCN(c5ccc(C#N)cn5)CC4)c3)n[nH]c(=O)c2cc1C [Example 83, 6-(4-(2-Fluoro-5-((6-methyl-4-oxo-7-(prop-1-yn-1-yl)-3,4-dihydrophthalazin-1-yl)methyl)benzoyl)piperazin-1-yl)nicotinonitrile]	< 0.05 µM	–	–	0.1 to 1 µM	–
N#Cc1ccc(N2CCN(C(=O)c3cccc(Cc4n[nH]c(=O)c5c(F)cccc45)c3)CC2)nc1 [Example 88, 6-(4-(3-((5-Fluoro-4-oxo-3,4-dihydrophthalazin-1-yl)methyl)benzoyl)piperazin-1-yl)nicotinonitrile]	< 0.05 µM	–	–	0.1 to 1 µM	–
N#Cc1ccc(N2CCN(C(=O)c3cc(Cc4n[nH]c(=O)c5cccnc45)ccc3F)CC2)nc1 [Example 92, 6-(4-(2-Fluoro-5-((5-oxo-5,6-dihydropyrido[2,3-d]pyridazin-8-yl)methyl)benzoyl)piperazin-1-yl)nicotinonitrile]	0.05 to 0.1 µM	–	–	> 5 µM	> 5 µM
O=C(c1cc(Cc2n[nH]c(=O)c3ccc(OC4CCC4)cc23)ccc1F)N1CCCN(c2ncc(C(F)(F)F)cn2)CC1 [Example 98, 6-Cyclobutoxy-4-(4-fluoro-3-(4-(5-(trifluoromethyl)pyrimidin-2-yl)-1,4-diazepane-1-carbonyl)benzyl)phthalazin-1(2H)-one]	< 0.05 µM	–	–	0.1 to 1 µM	> 5 µM
O=C(c1cc(Cc2n[nH]c(=O)c3ccc(OC4CCC4)cc23)ccc1F)N1CCN(C(=O)C2CC2)CC(F)(F)C1 [Example 127, 6-Cyclobutoxy-4-(3-(4-(cyclopropanecarbonyl)-6,6-difluoro-1,4-diazepane-1-carbonyl)-4-fluorobenzyl)phthalazin-1(2H)-one]	< 0.05 µM	–	–	1 to 5 µM	–
N#Cc1cnc(N2CCN(C(=O)c3cc(Cc4n[nH]c(=O)c5ccc(OC6CCC6)cc45)ccc3F)CC2)cc1C(F)(F)F [Example 132, 6-(4-(5-((7-cyclobutoxy-4-oxo-3,4-dihydrophthalazin-1-yl)methyl)-2-fluorobenzoyl)piperazin-1-yl)-4-(trifluoromethyl)nicotinonitrile]	–	–	–	< 0.1 µM	1 to 5 µM
O=C(c1cc(Cc2n[nH]c(=O)c3ccc(OC4CCC4)cc23)ccc1F)N1CCN(c2ccc(O)cn2)CC1 [Example 140, 6-cyclobutoxy-4-(4-fluoro-3-(4-(5-hydroxypyridin-2-yl)piperazine-1-carbonyl)benzyl)phthalazin-1(2H)-one]	< 0.05 µM	–	–	1 to 5 µM	–
O=C(c1cc(Cc2n[nH]c(=O)c3ccc(OC4CCC4)cc23)ccc1F)N1CCn2c(nnc2C(F)(F)F)C1 [Example 145, 6-cyclobutoxy-4-(4-fluoro-3-(3-(trifluoromethyl)-5,6,7,8-tetrahydro-[1,2,4]triazolo[4,3-a]pyrazine-7-carbonyl)benzyl)phthalazin-1(2H)-one]	< 0.05 µM	–	–	1 to 5 µM	–
O=C(c1cc(Cc2n[nH]c(=O)c3ccc(OC4CCC4)cc23)ccc1F)N1CCn2c(nnc2C2CC2)C1 [Example 146, 6-cyclobutoxy-4-(3-(3-cyclopropyl-5,6,7,8-tetrahydro-[1,2,4]triazolo[4,3-a]pyrazine-7-carbonyl)-4-fluorobenzyl)phthalazin-1(2H)-one]	< 0.05 µM	–	–	> 5 µM	–
O=C(c1cc(Cc2n[nH]c(=O)c3ccc(OC4CCC4)cc23)ccc1Cl)N1CCN(c2ncc(C(F)(F)F)cn2)CC1 [Example 169, 4-(4-chloro-3-(4-(5-(trifluoromethyl)pyrimidin-2-yl)piperazine-1-carbonyl)benzyl)-6-cyclobutoxyphthalazin-1(2H)-one]	< 0.05 µM	–	–	< 0.1 µM	–
COc1ccc2c(=O)[nH]nc(Cc3ccc(S(C)(=O)=O)c(C(=O)N4CCN(c5ccc(C#N)cn5)CC4)c3)c2c1 [Example 182, 6-(4-(5-((7-Methoxy-4-oxo-3,4-dihydrophthalazin-1-yl)methyl)-2-(methylsulfonyl)benzoyl)piperazin-1-yl)nicotinonitrile]	< 0.05 µM	–	–	> 5 µM	–
C#CCNc1ccc2c(=O)[nH]nc(Cc3ccc(F)c(C(=O)N4CCn5c(nnc5C(F)(F)F)C4)c3)c2c1 [Example 185, 4-(4-Fluoro-3-(3-(trifluoromethyl)-5,6,7,8-tetrahydro-[1,2,4]triazolo[4,3-a]pyrazine-7-carbonyl)benzyl)-6-(prop-2-yn-1-ylamino)phthalazin-1(2H)-one]	0.1 to 0.5 µM	–	–	> 5 µM	–
N#Cc1ccc(N2CCN(C(=O)c3cc(Oc4n[nH]c(=O)c5ccccc45)ccc3F)CC2)nc1 [Example 190, 6-(4-(2-fluoro-5-((4-oxo-3,4-dihydrophthalazin-1-yl)oxy)benzoyl)piperazin-1-yl)nicotinonitrile]	0.1 to 0.5 µM	–	–	1 to 5 µM	–
CC#Cc1ccc2c(=O)[nH]nc(C(C)OCCC(=O)N3CCN(c4ncc(C(F)(F)F)cn4)CC3)c2c1 (stereo not drawn) [Example 192, 4-(1-(3-Oxo-3-(4-(5-(trifluoromethyl)pyrimidin-2-yl)piperazin-1-yl)propoxy)ethyl)-6-(prop-1-ynyl)phthalazin-1(2H)-one]	< 0.05 µM	–	–	0.1 to 1 µM	–
CC#Cc1ccc2c(=O)[nH]nc(Cc3ccc(F)c(C(=O)NCc4nnc(C(F)(F)F)o4)c3)c2c1 [Example 199, 2-Fluoro-5-((4-oxo-7-(prop-1-ynyl)-3,4-dihydrophthalazin-1-yl)methyl)-N-((5-(trifluoromethyl)-1,3,4-oxadiazol-2-yl)methyl)benzamide]	> 2 µM	–	–	1 to 5 µM	–
CC#Cc1ccc2c(=O)[nH]nc(Cc3ccc(F)c(C(=O)N(C)C4CN(c5ccc(C#N)cn5)C4)c3)c2c1 [Example 201, N-(1-(5-Cyanopyridin-2-yl)azetidin-3-yl)-2-fluoro-N-methyl-5-((4-oxo-7-(prop-1-yn-1-yl)-3,4-dihydrophthalazin-1-yl)methyl)benzamide]	0.5 to 2 µM	–	–	1 to 5 µM	–

Source: patent US20260055079A1, “PHTHALAZINONE COMPOUNDS AS PARP7 INHIBITORS” (AZKARRA THERAPEUTICS, INC., priority 2022, published 2026)
